Reference: patent US12077503B2, “Substituted cyclic amides and their use as herbicides” (FMC CORPORATION, priority 2015, dated 2024)

Columns and labels:
Type in all cases: in vivo
[1] = test system: barnyardgrass (Echinochloa crus-galli); assay: Test G Pre-Emergence Protocol; details: Echinochloa crus-galli, pre-emergence, 312 h, evaluated after 13 days; for pest or weed control at 15.625 g/ha: 15.625 g ai/ha; for pest or weed control at 15.625 g/ha / pest or weed control at 250 g/ha: read-out: Barnyardgrass damage rating (100=total damage to plant; 0=no damage to plant); for pest or weed control at 62.5 g/ha: 62.5 g ai/ha, 100=total damage to plant, 0=no damage to plant, read-out: Barnyardgrass damage rating; for pest or weed control at 250 g/ha: 250 g ai/ha
Method in brief: (§1)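 Pots of seeds in standard soil were grown for one day in a glasshouse (24/16 °C day/night, 14 h light, 65% humidity), then sprayed with compound in acetone/water 50:50 with 0.5% Tween 20 at 15.625, 62.5 or 250 g/ha. Damage was scored after 13 days on a 0 (none) to 100 (total) scale.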

corn (Zea mays) [2] = assay: Test G Pre-Emergence Protocol; details: Zea mays, pre-emergence, 312 h, evaluated after 13 days; for plant injury at 15.625 g/ha: 15.625 g ai/ha; for plant injury at 15.625 g/ha / plant injury at 250 g/ha: read-out: Corn damage rating (100=total damage to plant; 0=no damage to plant); for plant injury at 62.5 g/ha: 62.5 g ai/ha, 100=total damage to plant, 0=no damage to plant, read-out: Corn damage rating; for plant injury at 250 g/ha: 250 g ai/ha
Method in brief: as §1

[3] = test system: giant foxtail (Setaria faberi); assay: Test G Pre-Emergence Protocol; details: Setaria faberi, pre-emergence, 312 h, evaluated after 13 days; for pest or weed control at 15.625 g/ha: 15.625 g ai/ha; for pest or weed control at 15.625 g/ha / pest or weed control at 250 g/ha: read-out: Foxtail, Giant damage rating (100=total damage to plant; 0=no damage to plant); for pest or weed control at 62.5 g/ha: 62.5 g ai/ha, 100=total damage to plant, 0=no damage to plant, read-out: Foxtail, Giant damage rating; for pest or weed control at 250 g/ha: 250 g ai/ha
Method in brief: as §1

[4] = test system: ivy-leaved morning glory (Ipomoea hederacea); assay: Test G Pre-Emergence Protocol; details: Ipomoea, pre-emergence, 312 h, evaluated after 13 days; for pest or weed control at 15.625 g/ha: 15.625 g ai/ha; for pest or weed control at 15.625 g/ha / pest or weed control at 250 g/ha: read-out: Morningglory, Ivy-leaved damage rating (100=total damage to plant; 0=no damage to plant); for pest or weed control at 62.5 g/ha: 62.5 g ai/ha, 100=total damage to plant, 0=no damage to plant, read-out: Morningglory, Ivy-leaved damage rating; for pest or weed control at 250 g/ha: 250 g ai/ha
Method in brief: as §1

[5] = test system: redroot pigweed (Amaranthus retroflexus); assay: Test G Pre-Emergence Protocol; details: Amaranthus retroflexus, pre-emergence, 312 h, evaluated after 13 days; for pest or weed control at 15.625 g/ha: 15.625 g ai/ha; for pest or weed control at 15.625 g/ha / pest or weed control at 250 g/ha: read-out: Pigweed, Redroot damage rating (100=total damage to plant; 0=no damage to plant); for pest or weed control at 62.5 g/ha: 62.5 g ai/ha, 100=total damage to plant, 0=no damage to plant, read-out: Pigweed, Redroot damage rating; for pest or weed control at 250 g/ha: 250 g ai/ha
Method in brief: as §1

[6] = test system: velvetleaf (Abutilon theophrasti); assay: Test G Pre-Emergence Protocol; details: Abutilon theophrasti, pre-emergence, 312 h, evaluated after 13 days; for pest or weed control at 15.625 g/ha: 15.625 g ai/ha; for pest or weed control at 15.625 g/ha / pest or weed control at 250 g/ha: read-out: Velvetleaf damage rating (100=total damage to plant; 0=no damage to plant); for pest or weed control at 62.5 g/ha: 62.5 g ai/ha, 100=total damage to plant, 0=no damage to plant, read-out: Velvetleaf damage rating; for pest or weed control at 250 g/ha: 250 g ai/ha
Method in brief: as §1

[7] = test system: barnyardgrass (Echinochloa crus-galli); assay: Test G Post-Emergence Protocol; details: Echinochloa crus-galli, post-emergence, 312 h, read-out: Barnyardgrass damage rating; for pest or weed control at 15.625 g/ha: 15.625 g ai/ha, evaluated after 13 days (100=total damage to plant; 0=no damage to plant); for pest or weed control at 62.5 g/ha: 62.5 g ai/ha; for pest or weed control at 62.5 g/ha / pest or weed control at 250 g/ha: evaluated after 13 days, 100=total damage to plant, 0=no damage to plant; for pest or weed control at 250 g/ha: 250 g ai/ha
Method in brief: (§2)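 Damage was rated 13 days after treatment from 0 (none) to 100 (plant killed). Compound was applied as a spray at 15.625, 62.5 or 250 g/ha in 50:50 acetone/water containing 0.5% Tween 20, onto 8-day-old potted plants kept in a glasshouse (24/16 °C, 14 h light, 65% humidity).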

corn (Zea mays) [8] = assay: Test G Post-Emergence Protocol; details: Zea mays, post-emergence, 312 h, read-out: Corn damage rating; for plant injury at 15.625 g/ha: 15.625 g ai/ha, evaluated after 13 days (100=total damage to plant; 0=no damage to plant); for plant injury at 62.5 g/ha: 62.5 g ai/ha; for plant injury at 62.5 g/ha / plant injury at 250 g/ha: evaluated after 13 days, 100=total damage to plant, 0=no damage to plant; for plant injury at 250 g/ha: 250 g ai/ha
Method in brief: as §2

[9] = test system: giant foxtail (Setaria faberi); assay: Test G Post-Emergence Protocol; details: Setaria faberi, post-emergence, 312 h, read-out: Foxtail, Giant damage rating; for pest or weed control at 15.625 g/ha: 15.625 g ai/ha, evaluated after 13 days (100=total damage to plant; 0=no damage to plant); for pest or weed control at 62.5 g/ha: 62.5 g ai/ha
Method in brief: as §2

[10] = test system: ivy-leaved morning glory (Ipomoea hederacea); assay: Test G Post-Emergence Protocol; details: Ipomoea, post-emergence, 312 h, read-out: Morningglory, Ivy-leaved damage rating; for pest or weed control at 15.625 g/ha: 15.625 g ai/ha, evaluated after 13 days (100=total damage to plant; 0=no damage to plant); for pest or weed control at 62.5 g/ha: 62.5 g ai/ha; for pest or weed control at 62.5 g/ha / pest or weed control at 250 g/ha: evaluated after 13 days, 100=total damage to plant, 0=no damage to plant; for pest or weed control at 250 g/ha: 250 g ai/ha
Method in brief: as §2

[11] = test system: redroot pigweed (Amaranthus retroflexus); assay: Test G Post-Emergence Protocol; details: Amaranthus retroflexus, post-emergence, 312 h, read-out: Pigweed, Redroot damage rating; for pest or weed control at 15.625 g/ha: 15.625 g ai/ha, evaluated after 13 days (100=total damage to plant; 0=no damage to plant); for pest or weed control at 62.5 g/ha: 62.5 g ai/ha; for pest or weed control at 62.5 g/ha / pest or weed control at 250 g/ha: evaluated after 13 days, 100=total damage to plant, 0=no damage to plant; for pest or weed control at 250 g/ha: 250 g ai/ha
Method in brief: as §2

[12] = test system: velvetleaf (Abutilon theophrasti); assay: Test G Post-Emergence Protocol; details: Abutilon theophrasti, post-emergence, 312 h, read-out: Velvetleaf damage rating; for pest or weed control at 15.625 g/ha: 15.625 g ai/ha, evaluated after 13 days (100=total damage to plant; 0=no damage to plant); for pest or weed control at 62.5 g/ha: 62.5 g ai/ha; for pest or weed control at 62.5 g/ha / pest or weed control at 250 g/ha: evaluated after 13 days, 100=total damage to plant, 0=no damage to plant; for pest or weed control at 250 g/ha: 250 g ai/ha
Method in brief: as §2

[13] = evaluated after 13 days, 100=total damage to plant, 0=no damage to plant

SMILES: CN1C[C@H](c2ccc(F)c(F)c2)[C@@H](C(=O)Nc2cnccc2C(F)(F)F)C1=O (racemic) [Compound 1740]
- pest or weed control at 15.625 g/ha [1]: 0%
- pest or weed control at 62.5 g/ha [1]: 30%
- pest or weed control at 250 g/ha [1]: 40%
- plant injury at 15.625 g/ha (corn (Zea mays) [2]): 0%
- plant injury at 62.5 g/ha (corn (Zea mays) [2]): 0%
- plant injury at 250 g/ha (corn (Zea mays) [2]): 10%
- pest or weed control at 15.625 g/ha [3]: 0%
- pest or weed control at 62.5 g/ha [3]: 60%
- pest or weed control at 250 g/ha [3]: 90%
- pest or weed control at 15.625 g/ha [4]: 0%
- pest or weed control at 62.5 g/ha [4]: 0%
- pest or weed control at 250 g/ha [4]: 0%
- pest or weed control at 15.625 g/ha [5]: 0%
- pest or weed control at 62.5 g/ha [5]: 0%
- pest or weed control at 250 g/ha [5]: 40%
- pest or weed control at 15.625 g/ha [6]: 0%
- pest or weed control at 62.5 g/ha [6]: 0%
- pest or weed control at 250 g/ha [6]: 50%
- pest or weed control at 15.625 g/ha [7]: 0%
- pest or weed control at 62.5 g/ha [7]: 0%
- pest or weed control at 250 g/ha [7]: 20%
- plant injury at 15.625 g/ha (corn (Zea mays) [8]): 0%
- plant injury at 62.5 g/ha (corn (Zea mays) [8]): 0%
- plant injury at 250 g/ha (corn (Zea mays) [8]): 0%
- pest or weed control at 15.625 g/ha [9]: 0%
- pest or weed control at 62.5 g/ha [9, 13]: 40%
- pest or weed control at 15.625 g/ha [10]: 0%
- pest or weed control at 62.5 g/ha [10]: 0%
- pest or weed control at 250 g/ha [10]: 20%
- pest or weed control at 15.625 g/ha [11]: 0%
- pest or weed control at 62.5 g/ha [11]: 0%
- pest or weed control at 250 g/ha [11]: 0%
- pest or weed control at 15.625 g/ha [12]: 0%
- pest or weed control at 62.5 g/ha [12]: 0%
- pest or weed control at 250 g/ha [12]: 10%

SMILES: CN1C[C@H](c2cccc(C(F)F)c2)[C@@H](C(=O)Nc2cnccc2C(F)(F)F)C1=O (racemic) [Compound 1742]
- pest or weed control at 15.625 g/ha [1]: 0%
- pest or weed control at 62.5 g/ha [1]: 0%
- pest or weed control at 250 g/ha [1]: 80%
- plant injury at 15.625 g/ha (corn (Zea mays) [2]): 0%
- plant injury at 62.5 g/ha (corn (Zea mays) [2]): 0%
- plant injury at 250 g/ha (corn (Zea mays) [2]): 30%
- pest or weed control at 15.625 g/ha [3]: 50%
- pest or weed control at 62.5 g/ha [3]: 80%
- pest or weed control at 250 g/ha [3]: 90%
- pest or weed control at 15.625 g/ha [4]: 0%
- pest or weed control at 62.5 g/ha [4]: 0%
- pest or weed control at 250 g/ha [4]: 10%
- pest or weed control at 15.625 g/ha [5]: 0%
- pest or weed control at 62.5 g/ha [5]: 10%
- pest or weed control at 250 g/ha [5]: 20%
- pest or weed control at 15.625 g/ha [6]: 0%
- pest or weed control at 62.5 g/ha [6]: 0%
- pest or weed control at 250 g/ha [6]: 30%
- pest or weed control at 15.625 g/ha [7]: 0%
- pest or weed control at 62.5 g/ha [7]: 70%
- pest or weed control at 250 g/ha [7]: 80%
- plant injury at 15.625 g/ha (corn (Zea mays) [8]): 0%
- plant injury at 62.5 g/ha (corn (Zea mays) [8]): 0%
- plant injury at 250 g/ha (corn (Zea mays) [8]): 70%
- pest or weed control at 15.625 g/ha [9]: 70%
- pest or weed control at 62.5 g/ha [9, 13]: 80%
- pest or weed control at 250 g/ha ([9]; 250 g ai/ha, evaluated after 13 days, 100=total damage to plant, 0=no damage to plant): 80%
- pest or weed control at 15.625 g/ha [10]: 0%
- pest or weed control at 62.5 g/ha [10]: 0%
- pest or weed control at 250 g/ha [10]: 40%
- pest or weed control at 15.625 g/ha [11]: 0%
- pest or weed control at 62.5 g/ha [11]: 20%
- pest or weed control at 250 g/ha [11]: 30%
- pest or weed control at 15.625 g/ha [12]: 0%
- pest or weed control at 62.5 g/ha [12]: 10%
- pest or weed control at 250 g/ha [12]: 20%
